Data on two molecules can be found in patent US20250049779A1, “COMBINATION OF AN A2-ADRENOCEPTOR SUBTYPE C (ALPHA-2C) ANTAGONIST WITH A NOREPINEPHRINE REUPTAKE INHIBITOR FOR THE TREATMENT OF SLEEP APNEA” (Bayer Aktiengesellschaft, priority 2021, published 2025).

This assay concerns upper airway collapsibility. As to the kind of experiment: pig model of obstructive sleep apnea (OSA): collapse of the upper respiratory tract induced by negative pressure in anaesthetized, spontaneously breathing pigs. The following applies: for Percent pigs without collaps −150 cm H2O, %: −150 cm H2O (column head; title prints −100). The class given is in vivo, German Landrace pigs. From the text: The therapeutic potential of the combination of an α2-Adrenoceptor subtype C (alpha-2C) antagonists with a noradrenaline reuptake inhibitor according to the present invention in sleep apnea can be assessed preclinically in a pig model of obstructive sleep apnea (OSA).
Using negative pressure, it is possible to induce collapse and thus obstruction of the upper respiratory tract in anaesthetized, spontaneously breathing pigs (Wirth K. J. et al., Sleep 36(5) (2013) pp. 699-708).
German Landrace pigs are used for the model. The pigs are anaesthetized and tracheotomized. Two tracheal cannulas are inserted into the trachea, one into the rostral part and the other into the caudal part of the trachea. Using a connection piece, the rostral cannula is connected to a tube to the negative pressure device and to the distal tracheal cannula. The distal tracheal cannula is additionally connected to a tube with an open end to atmosphere via a connection piece that served for free tracheal breathing, circumventing the upper airway. By appropriate opening and clamping of those tubes breathing can be switched from nasal breathing to breathing through the caudal tracheal cannula, circumventing the upper airway, and the (isolated) upper airway can be connected to the negative pressure device, causing airflow in the inspiratory direction.
At certain points in time, the collapsibility of the upper respiratory tract is tested by having the pig breathe via the caudal cannula and applying negative pressures of −50, −100 and −150 cm water head (cm H2O) to the upper respiratory tract. This causes the upper respiratory tract to collapse, which manifests itself in an interruption of the airflow and a pressure drop in the tube system. This test is conducted prior to the administration of the test substance and at certain intervals after the administration of the test substance. An appropriately effective test substance can prevent this collapse of the respiratory tract in the inspiratory phase.

The mark [1] stands for this setting: intravenous bolus 20 μg/kg then infusion 12.5 μg/kg/h for four hours, time 0 min (time of administration).
Setting [2] is: intravenous bolus 20 μg/kg then infusion 12.5 μg/kg/h for four hours, time 10 min.
The mark [3] stands for this setting: intravenous bolus 20 μg/kg then infusion 12.5 μg/kg/h for four hours, time 30 min.
[4] abbreviates: intravenous bolus 20 μg/kg then infusion 12.5 μg/kg/h for four hours, time 60 min.
Setting [5] is: intravenous bolus 20 μg/kg then infusion 12.5 μg/kg/h for four hours, time 120 min.
Where [6] appears, read: intravenous bolus 20 μg/kg then infusion 12.5 μg/kg/h for four hours, time 180 min.
[7] abbreviates: intravenous bolus 20 μg/kg then infusion 12.5 μg/kg/h for four hours, time 240 min.

In the case of `C[C@@H]1CCCN(C2CCN(c3ncc(C(=O)NCc4ncc(F)cc4F)s3)CC2)C1` [N-[(3,5-difluoropyridin-2-yl)methyl]-2-[(3R)-3-methyl[1,4′-bipiperidin]-1′-yl]-1,3-thiazole-5-carboxamide], the “inhibited upper airway collapsibility at all negative pressures of −50, −100 and −150 cm head (cm H2O) in all pigs” value (0.01 mg/kg intraduodenal) is reported as “at no time point”. Moreover, the “upper airway collapsibility at the negative pressures of −50 and −100 cm head (cm H2O)” value (0.01 mg/kg intraduodenal, 120 min after administration) is given as “inhibited”. The “upper airway collapsibility at the negative pressure of −50 cm head (cm H2O)” value (0.01 mg/kg intraduodenal, 150 min after administration) is listed as “inhibited”.

Consider `CNCC[C@@H](Oc1ccccc1C)c1ccccc1` [atomoxetine], for which the “inhibited upper airway collapsibility at all negative pressures of −50, −100 and −150 cm head (cm H2O) in all pigs” value (intravenous bolus 20 μg/kg then infusion 12.5 μg/kg/h for four hours) was “at no time”. For the same molecule, the “Percent pigs without collaps −50 cm H2O, %” value is, setting by setting: under setting [1], 0%; under setting [2], 0%; under setting [3], 0%; under setting [4], 0%; under setting [5], 0%; under setting [6], 0%. For the same molecule, the “Percent pigs without collaps −50 cm H2O, %” value under setting [7] stood at 0%. For the same molecule, the “Percent pigs without collaps −100 cm H2O, %” value runs as follows: under setting [1], 0%; under setting [2], 0%; under setting [3], 0%; under setting [4], 0%; under setting [5], 0%; under setting [6], 0%. Under setting [7], the “Percent pigs without collaps −100 cm H2O, %” value was 0%. Moreover, the “Percent pigs without collaps −150 cm H2O, %” value reads like this: under setting [1], 0%; under setting [2], 0%; under setting [3], 0%; under setting [4], 0%; under setting [5], 0%; under setting [6], 0%. Further, under setting [7], the “Percent pigs without collaps −150 cm H2O, %” value is reported as 0%.
